Key:
[1] = molecular target: T1, Full length human recombinant HDAC6 (Homo sapiens, UniProt Q9UBN7); test: In vitro histone deacetylase assay, enzymatic HDAC6 (electrophoretic mobility shift assay); assay type: biochemical; conditions: 1 nM HDAC6; 2 μM peptide substrate FAM-RHKK(Ac)—NH2; 25° C.; 12 concentrations; read-out: HDAC6 Activity Range (IC50)
T1 construct: Full length human recombinant HDAC6 and HDAC11 proteins were expressed in baculoviral system
T1 sequence (Q9UBN7 1-1215): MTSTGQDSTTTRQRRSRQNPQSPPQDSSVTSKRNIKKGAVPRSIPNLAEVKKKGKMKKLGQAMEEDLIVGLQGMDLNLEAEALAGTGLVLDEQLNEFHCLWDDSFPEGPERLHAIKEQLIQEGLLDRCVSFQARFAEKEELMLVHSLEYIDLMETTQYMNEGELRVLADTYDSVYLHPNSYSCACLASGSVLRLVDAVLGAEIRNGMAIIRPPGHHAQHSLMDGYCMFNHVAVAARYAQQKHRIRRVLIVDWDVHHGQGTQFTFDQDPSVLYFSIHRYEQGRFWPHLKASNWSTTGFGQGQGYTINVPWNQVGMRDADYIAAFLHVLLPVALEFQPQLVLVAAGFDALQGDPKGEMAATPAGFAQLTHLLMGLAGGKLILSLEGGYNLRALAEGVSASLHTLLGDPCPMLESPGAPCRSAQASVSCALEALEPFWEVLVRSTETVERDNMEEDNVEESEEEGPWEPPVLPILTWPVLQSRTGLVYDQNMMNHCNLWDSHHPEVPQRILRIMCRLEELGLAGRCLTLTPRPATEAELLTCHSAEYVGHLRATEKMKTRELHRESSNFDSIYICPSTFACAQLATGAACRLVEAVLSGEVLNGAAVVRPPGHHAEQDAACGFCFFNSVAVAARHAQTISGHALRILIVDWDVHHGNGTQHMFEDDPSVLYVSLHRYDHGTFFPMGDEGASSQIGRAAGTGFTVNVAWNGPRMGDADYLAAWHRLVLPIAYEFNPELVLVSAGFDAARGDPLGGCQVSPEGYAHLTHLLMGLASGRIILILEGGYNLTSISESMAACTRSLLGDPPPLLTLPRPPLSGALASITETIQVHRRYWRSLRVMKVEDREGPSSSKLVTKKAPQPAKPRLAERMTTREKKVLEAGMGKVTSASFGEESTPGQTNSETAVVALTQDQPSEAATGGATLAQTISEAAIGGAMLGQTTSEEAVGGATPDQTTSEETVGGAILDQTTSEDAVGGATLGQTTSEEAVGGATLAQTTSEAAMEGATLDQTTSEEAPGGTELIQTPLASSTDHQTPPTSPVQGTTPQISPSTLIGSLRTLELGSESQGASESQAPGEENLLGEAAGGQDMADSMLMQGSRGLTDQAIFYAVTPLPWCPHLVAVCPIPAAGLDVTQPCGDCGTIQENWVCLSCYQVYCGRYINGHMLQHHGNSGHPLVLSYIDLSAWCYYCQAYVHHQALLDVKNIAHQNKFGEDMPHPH
In short: (§1)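 Baculovirus-expressed full-length enzymes (HDAC6 1 nM, FAM-RHKK(Ac)-NH2; HDAC11 10 nM, FAM-RHKK(tri-fluor-Ac)-NH2), 2 μM substrate, HEPES pH 7.5, 25°C, 12-point 3× dilutions. Product/substrate separated by microfluidic mobility shift after SDS quench; IC50 from 4-parameter fit, reported as +/++/+++ bins.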

[2] = molecular target: T2, Full length human recombinant HDAC11 (Homo sapiens, UniProt Q96DB2); test: In vitro histone deacetylase assay, enzymatic HDAC11 (electrophoretic mobility shift assay); assay type: biochemical; conditions: 10 nM HDAC11; 2 μM peptide substrate FAM-RHKK(tri-fluor-Ac)—NH2; 25° C.; 12 concentrations; read-out: HDAC11 Activity Range (IC50)
T2 construct: Full length human recombinant HDAC6 and HDAC11 proteins were expressed in baculoviral system
T2 sequence (Q96DB2 1-347): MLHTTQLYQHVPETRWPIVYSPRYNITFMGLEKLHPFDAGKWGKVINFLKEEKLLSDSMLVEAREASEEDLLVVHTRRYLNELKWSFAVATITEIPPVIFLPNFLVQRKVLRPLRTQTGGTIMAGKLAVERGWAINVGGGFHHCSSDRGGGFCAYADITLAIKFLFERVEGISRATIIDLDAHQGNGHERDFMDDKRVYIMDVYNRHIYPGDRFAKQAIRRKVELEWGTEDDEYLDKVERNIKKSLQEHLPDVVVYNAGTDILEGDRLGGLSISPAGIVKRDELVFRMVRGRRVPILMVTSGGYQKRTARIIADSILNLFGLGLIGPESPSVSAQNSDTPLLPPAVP
In short: as §1

IC50 [1] [nM]	IC50 [2] [nM]	Structure (SMILES)
≤ 100	> 500	O=C(NO)c1ccc2c(c1)C[C@@]1(CC2)CCN(Cc2ccccc2OC(F)F)C1=O [Compound I-78, (S)-1′-(2-(difluoromethoxy)benzyl)-N-hydroxy-2′-oxo-3,4-dihydro-1H-spiro[naphthalene-2,3′-pyrrolidine]-7-carboxamide]
≤ 100	> 500	CCCN1CC[C@]2(CCc3ccc(C(=O)NO)cc3C2)C1=O [Compound I-79, (R)—N-hydroxy-2′-oxo-1′-propyl-3,4-dihydro-1H-spiro[naphthalene-2,3′-pyrrolidine]-7-carboxamide]
≤ 100	> 500	O=C(NO)c1ccc2c(c1)C[C@]1(CC2)CCN(CCCO)C1=O [Compound I-80, (R)—N-hydroxy-1′-(3-hydroxypropyl)-2′-oxo-3,4-dihydro-1H-spiro[naphthalene-2,3′-pyrrolidine]-7-carboxamide]
≤ 100	> 500	O=C(NO)c1ccc2c(c1)C[C@]1(CC2)CCN(CC2CCC2)C1=O [Compound I-81, (R)-1′-(cyclobutylmethyl)-N-hydroxy-2′-oxo-3,4-dihydro-1H-spiro[naphthalene-2,3′-pyrrolidine]-7-carboxamide]
≤ 100	100 to 500	CC(C)CCN1CC[C@]2(CCc3ccc(C(=O)NO)cc3C2)C1=O [Compound I-82, (R)—N-hydroxy-1′-isopentyl-2′-oxo-3,4-dihydro-1H-spiro[naphthalene-2,3′-pyrrolidine]-7-carboxamide]
≤ 100	> 500	CC#CCN1CC[C@]2(CCc3ccc(C(=O)NO)cc3C2)C1=O [Compound I-83, (R)-1′-(but-2-yn-1-yl)-N-hydroxy-2′-oxo-3,4-dihydro-1H-spiro[naphthalene-2,3′-pyrrolidine]-7-carboxamide]
≤ 100	> 500	COCCN1CC[C@]2(CCc3ccc(C(=O)NO)cc3C2)C1=O [Compound I-84, (R)—N-hydroxy-1′-(2-methoxyethyl)-2′-oxo-3,4-dihydro-1H-spiro[naphthalene-2,3′-pyrrolidine]-7-carboxamide]
≤ 100	> 500	O=C(NO)c1ccc2c(c1)C[C@]1(CC2)CCN(CC2CCOCC2)C1=O [Compound I-85, (R)—N-hydroxy-2′-oxo-1′-((tetrahydro-2H-pyran-4-yl)methyl)-3,4-dihydro-1H-spiro[naphthalene-2,3′-pyrrolidine]-7-carboxamide]
≤ 100	≤ 100	O=C(NO)c1ccc2c(c1)C[C@]1(CC2)CCN(C/C=C/c2ccccc2)C1=O [Compound I-86, (R)-1′-cinnamyl-N-hydroxy-2′-oxo-3,4-dihydro-H-spiro[naphthalene-2,3′-pyrrolidine]-7-carboxamide]
≤ 100	≤ 100	Cc1ccccc1CN1CC[C@]2(CCc3ccc(C(=O)NO)cc3C2)C1=O [Compound I-87, (R)—N-hydroxy-1′-(2-methylbenzyl)-2′-oxo-3,4-dihydro-1H-spiro[naphthalene-2,3′-pyrrolidine]-7-carboxamide]
≤ 100	≤ 100	O=C(NO)c1ccc2c(c1)C[C@]1(CC2)CCN(Cc2ccccc2C(F)(F)F)C1=O [Compound I-88, (R)—N-hydroxy-2′-oxo-1′-(2-(trifluoromethyl)benzyl)-3,4-dihydro-1H-spiro[naphthalene-2,3′-pyrrolidine]-7-carboxamide]
≤ 100	≤ 100	O=C(NO)c1ccc2c(c1)C[C@]1(CC2)CCN(Cc2ccccc2Cl)C1=O [Compound I-89, (R)-1′-(2-chlorobenzyl)-N-hydroxy-2′-oxo-3,4-dihydro-1H-spiro[naphthalene-2,3′-pyrrolidine]-7-carboxamide]
≤ 100	≤ 100	O=C(NO)c1ccc2c(c1)C[C@]1(CC2)CCN(Cc2ccccc2OC(F)(F)F)C1=O [Compound I-90, (R)—N-hydroxy-2′-oxo-1′-(2-(trifluoromethoxy)benzyl)-3,4-dihydro-1H-spiro[naphthalene-2,3′-pyrrolidine]-7-carboxamide]
≤ 100	≤ 100	O=C(NO)c1ccc2c(c1)C[C@]1(CC2)CCN(Cc2ccc3nonc3c2)C1=O [Compound I-91, (R)-1′-(benzo[c][1,2,5]oxadiazol-5-ylmethyl)-N-hydroxy-2′-oxo-3,4-dihydro-1H-spiro[naphthalene-2,3′-pyrrolidine]-7-carboxamide]
≤ 100	> 500	O=C(NO)c1ccc2c(c1)C[C@]1(CC2)CCN(CC(=O)N2CCOCC2)C1=O [Compound I-92, (R)—N-hydroxy-1′-(2-morpholino-2-oxoethyl)-2′-oxo-3,4-dihydro-1H-spiro[naphthalene-2,3′-pyrrolidine]-7-carboxamide]
≤ 100	100 to 500	COc1ccccc1CN1CC[C@]2(CCc3ccc(C(=O)NO)cc3C2)C1=O [Compound I-93, (R)—N-hydroxy-1′-(2-methoxybenzyl)-2′-oxo-3,4-dihydro-1H-spiro[naphthalene-2,3′-pyrrolidine]-7-carboxamide]
≤ 100	≤ 100	O=C(NO)c1ccc2c(c1)C[C@]1(CC2)CCN(Cc2cc(Cl)ccc2Cl)C1=O [Compound I-94, (R)-1′-(2,5-dichlorobenzyl)-N-hydroxy-2′-oxo-3,4-dihydro-1H-spiro[naphthalene-2,3′-pyrrolidine]-7-carboxamide]
≤ 100	> 500	O=C(NO)c1ccc2c(c1)C[C@]1(CC2)CCN(Cc2c(Cl)cccc2Cl)C1=O [Compound I-95, (R)-1′-(2,6-dichlorobenzyl)-N-hydroxy-2′-oxo-3,4-dihydro-1H-spiro[naphthalene-2,3′-pyrrolidine]-7-carboxamide]
≤ 100	100 to 500	COc1cccc(CN2CC[C@]3(CCc4ccc(C(=O)NO)cc4C3)C2=O)c1 [Compound I-96, (R)—N-hydroxy-1′-(3-methoxybenzyl)-2′-oxo-3,4-dihydro-1H-spiro[naphthalene-2,3′-pyrrolidine]-7-carboxamide]
≤ 100	> 500	O=C(NO)c1ccc2c(c1)C[C@]1(CC2)CCN(Cc2cccnc2)C1=O [Compound I-97, (R)—N-hydroxy-2′-oxo-1′-(pyridin-3-ylmethyl)-3,4-dihydro-1H-spiro[naphthalene-2,3′-pyrrolidine]-7-carboxamide]
≤ 100	> 500	O=C(NO)c1ccc2c(c1)C[C@]1(CC2)CCN(Cc2ccccn2)C1=O [Compound I-98, (R)—N-hydroxy-2′-oxo-1′-(pyridin-2-ylmethyl)-3,4-dihydro-1H-spiro[naphthalene-2,3′-pyrrolidine]-7-carboxamide]
≤ 100	≤ 100	O=C(NO)c1ccc2c(c1)C[C@]1(CC2)CCN(Cc2cccc(F)c2)C1=O [Compound I-99, (R)-1′-(3-fluorobenzyl)-N-hydroxy-2′-oxo-3,4-dihydro-1H-spiro[naphthalene-2,3′-pyrrolidine]-7-carboxamide]
≤ 100	≤ 100	O=C(NO)c1ccc2c(c1)C[C@]1(CC2)CCN(Cc2ccc(OC(F)(F)F)cc2)C1=O [Compound I-100, (R)—N-hydroxy-2′-oxo-1′-(4-(trifluoromethoxy)benzyl)-3,4-dihydro-1H-spiro[naphthalene-2,3′-pyrrolidine]-7-carboxamide]
